In publication PMC5224920, “Assessing the mechanism and therapeutic potential of modulators of the human Mediator complex-associated protein kinases” (eLife, 2016):

System: 12 single or co-culture in vitro tissue models of primary cells
Experiment: Culture/co-culture cell model panel, extracellular biomarkers (DiscoveRx); on CCL2/MCP-1: reference of the scale not given here; on CD141/Thrombomodulin: reference of the scale not given here; on CD142/Tissue Factor: reference of the scale not given here; on CXCL8/IL-8: reference of the scale not given here; on CXCL9/MIG: reference of the scale not given here; on M-CSF: reference of the scale not given here; on SRB: reference of the scale not given here
Format: cell-based, human
[1] = /HDFNo unstimulated fibroblasts, 1.00E0 nM
[2] = /HDFNo unstimulated fibroblasts, 1.00E1 nM
[3] = /HDFNo unstimulated fibroblasts, 1.00E2 nM
[4] = /HDFNo unstimulated fibroblasts, 1.00E3 nM
[5] = /HDFNo unstimulated fibroblasts, 1.00E4 nM

For `CN1c2ccc(-c3cncc(Cl)c3N3CCC4(CC3)CNC(=O)O4)cc2CS1(=O)=O` [CMPD2], the CCL2/MCP-1 (3C, 1.00E0 nM) was 0.00665, the CD54/ICAM-1 (3C, 1.00E0 nM) was -0.015 and the CD87/uPAR (3C, 1.00E0 nM) was -0.232. For the same compound, the CD106/VCAM-1 (3C, 1.00E0 nM) was 0.040, the CD141/Thrombomodulin (3C, 1.00E0 nM) was 0.035 and the “CD142/Tissue Factor” value (3C, 1.00E0 nM) was 0.086. For the same compound, the CXCL8/IL-8 (3C, 1.00E0 nM) was 0.001, the CXCL9/MIG (3C, 1.00E0 nM) was -0.002 and the HLA-DR (3C, 1.00E0 nM) was -0.059. For the same compound, the Proliferation (3C, 1.00E0 nM) was -0.0027, the SRB (3C, 1.00E0 nM) was -0.057 and the CCL2/MCP-1 (3C, 1.00E1 nM) was -0.088. The CD54/ICAM-1 (3C, 1.00E1 nM) was -0.034, the CD87/uPAR (3C, 1.00E1 nM) was -0.339 and the CD106/VCAM-1 (3C, 1.00E1 nM) was 0.048. The CD141/Thrombomodulin (3C, 1.00E1 nM) was 0.056, the “CD142/Tissue Factor” value (3C, 1.00E1 nM) was 0.130 and the CXCL8/IL-8 (3C, 1.00E1 nM) was -0.104. For the same compound, the CXCL9/MIG (3C, 1.00E1 nM) was -0.011, the HLA-DR (3C, 1.00E1 nM) was -0.129 and the Proliferation (3C, 1.00E1 nM) was -0.036. The SRB (3C, 1.00E1 nM) was -0.071, the CCL2/MCP-1 (3C, 1.00E2 nM) was -0.157 and the CD54/ICAM-1 (3C, 1.00E2 nM) was -0.046. It also gave a CD87/uPAR (3C, 1.00E2 nM) of -0.368, a CD106/VCAM-1 (3C, 1.00E2 nM) of 0.046 and a CD141/Thrombomodulin (3C, 1.00E2 nM) of 0.051. For the same compound, the “CD142/Tissue Factor” value (3C, 1.00E2 nM) was 0.120, the CXCL8/IL-8 (3C, 1.00E2 nM) was -0.212 and the CXCL9/MIG (3C, 1.00E2 nM) was -0.016. The HLA-DR (3C, 1.00E2 nM) was -0.138, the Proliferation (3C, 1.00E2 nM) was -0.098 and the SRB (3C, 1.00E2 nM) was -0.085. For the same compound, the CCL2/MCP-1 (3C, 1.00E3 nM) was -0.150, the CD54/ICAM-1 (3C, 1.00E3 nM) was -0.055 and the CD87/uPAR (3C, 1.00E3 nM) was -0.368. For the same compound, the CD106/VCAM-1 (3C, 1.00E3 nM) was 0.045, the CD141/Thrombomodulin (3C, 1.00E3 nM) was 0.055 and the “CD142/Tissue Factor” value (3C, 1.00E3 nM) was 0.116. For the same compound, the CXCL8/IL-8 (3C, 1.00E3 nM) was -0.275, the CXCL9/MIG (3C, 1.00E3 nM) was -0.019 and the HLA-DR (3C, 1.00E3 nM) was -0.153. The Proliferation (3C, 1.00E3 nM) was -0.074, the SRB (3C, 1.00E3 nM) was -0.078 and the CCL2/MCP-1 (3C, 1.00E4 nM) was -0.161. It also gave a CD54/ICAM-1 (3C, 1.00E4 nM) of -0.041, a CD87/uPAR (3C, 1.00E4 nM) of -0.370 and a CD106/VCAM-1 (3C, 1.00E4 nM) of 0.044. The CD141/Thrombomodulin (3C, 1.00E4 nM) was 0.020, the “CD142/Tissue Factor” value (3C, 1.00E4 nM) was 0.089 and the CXCL8/IL-8 (3C, 1.00E4 nM) was -0.273. The CXCL9/MIG (3C, 1.00E4 nM) was -0.019, the HLA-DR (3C, 1.00E4 nM) was -0.147 and the Proliferation (3C, 1.00E4 nM) was -0.089. The SRB (3C, 1.00E4 nM) was -0.086, the CCL2/MCP-1 (/HDF3CT, 1.00E0 nM) was -0.00225 and the CD54/ICAM-1 (/HDF3CT, 1.00E0 nM) was -0.030. It also gave a CD106/VCAM-1 (/HDF3CT, 1.00E0 nM) of 0.019, a CXCL8/IL-8 (/HDF3CT, 1.00E0 nM) of -0.027 and a CXCL9/MIG (/HDF3CT, 1.00E0 nM) of 0.019. For the same compound, the CXCL10/IP-10 (/HDF3CT, 1.00E0 nM) was 0.006, the “Collagen I” value (/HDF3CT, 1.00E0 nM) was -0.00072 and the M-CSF (/HDF3CT, 1.00E0 nM) was 0.017. For the same compound, the MMP-1 (/HDF3CT, 1.00E0 nM) was 0.072, the PAI-I (/HDF3CT, 1.00E0 nM) was 0.018 and the SRB (/HDF3CT, 1.00E0 nM) was 0.014. For the same compound, the TIMP-2 (/HDF3CT, 1.00E0 nM) was 0.034, the CCL2/MCP-1 (/HDF3CT, 1.00E1 nM) was -0.044 and the CD54/ICAM-1 (/HDF3CT, 1.00E1 nM) was -0.067. The CD106/VCAM-1 (/HDF3CT, 1.00E1 nM) was 0.019, the CXCL8/IL-8 (/HDF3CT, 1.00E1 nM) was -0.054 and the CXCL9/MIG (/HDF3CT, 1.00E1 nM) was 0.015. The CXCL10/IP-10 (/HDF3CT, 1.00E1 nM) was 0.022, the “Collagen I” value (/HDF3CT, 1.00E1 nM) was -0.038 and the M-CSF (/HDF3CT, 1.00E1 nM) was -0.031. The MMP-1 (/HDF3CT, 1.00E1 nM) was 0.112, the PAI-I (/HDF3CT, 1.00E1 nM) was -0.053 and the SRB (/HDF3CT, 1.00E1 nM) was -0.00569. For the same compound, the TIMP-2 (/HDF3CT, 1.00E1 nM) was 0.057, the CCL2/MCP-1 (/HDF3CT, 1.00E2 nM) was -0.108 and the CD54/ICAM-1 (/HDF3CT, 1.00E2 nM) was -0.073. The CD106/VCAM-1 (/HDF3CT, 1.00E2 nM) was 0.009, the CXCL8/IL-8 (/HDF3CT, 1.00E2 nM) was -0.154 and the CXCL9/MIG (/HDF3CT, 1.00E2 nM) was -0.031. The CXCL10/IP-10 (/HDF3CT, 1.00E2 nM) was 0.011, the “Collagen I” value (/HDF3CT, 1.00E2 nM) was -0.041 and the M-CSF (/HDF3CT, 1.00E2 nM) was -0.045. It also gave an MMP-1 (/HDF3CT, 1.00E2 nM) of 0.027, a PAI-I (/HDF3CT, 1.00E2 nM) of -0.092 and an SRB (/HDF3CT, 1.00E2 nM) of -0.00555. It also gave a TIMP-2 (/HDF3CT, 1.00E2 nM) of 0.013, a CCL2/MCP-1 (/HDF3CT, 1.00E3 nM) of -0.094 and a CD54/ICAM-1 (/HDF3CT, 1.00E3 nM) of -0.080. The CD106/VCAM-1 (/HDF3CT, 1.00E3 nM) was -0.001, the CXCL8/IL-8 (/HDF3CT, 1.00E3 nM) was -0.182 and the CXCL9/MIG (/HDF3CT, 1.00E3 nM) was -0.043. The CXCL10/IP-10 (/HDF3CT, 1.00E3 nM) was 0.00749, the “Collagen I” value (/HDF3CT, 1.00E3 nM) was -0.064 and the M-CSF (/HDF3CT, 1.00E3 nM) was -0.064. For the same compound, the MMP-1 (/HDF3CT, 1.00E3 nM) was 0.014, the PAI-I (/HDF3CT, 1.00E3 nM) was -0.119 and the SRB (/HDF3CT, 1.00E3 nM) was -0.020. It also gave a TIMP-2 (/HDF3CT, 1.00E3 nM) of 0.052, a CCL2/MCP-1 (/HDF3CT, 1.00E4 nM) of -0.114 and a CD54/ICAM-1 (/HDF3CT, 1.00E4 nM) of -0.089. It also gave a CD106/VCAM-1 (/HDF3CT, 1.00E4 nM) of 0.006, a CXCL8/IL-8 (/HDF3CT, 1.00E4 nM) of -0.206 and a CXCL9/MIG (/HDF3CT, 1.00E4 nM) of -0.053. For the same compound, the CXCL10/IP-10 (/HDF3CT, 1.00E4 nM) was 0.009, the “Collagen I” value (/HDF3CT, 1.00E4 nM) was -0.042 and the M-CSF (/HDF3CT, 1.00E4 nM) was -0.068. The MMP-1 (/HDF3CT, 1.00E4 nM) was 0.035, the PAI-I (/HDF3CT, 1.00E4 nM) was -0.129 and the SRB (/HDF3CT, 1.00E4 nM) was 0.00189. It also gave a TIMP-2 (/HDF3CT, 1.00E4 nM) of 0.072, a CXCL8/IL-8 [1] of 0.063 and a CXCL9/MIG [1] of 0.141. The CXCL10/IP-10 [1] was 0.082, the CXCL11/I-TAC [1] was 0.071 and the EGFR [1] was 0.035. The M-CSF [1] was 0.081, the MMP-1 [1] was 0.152 and the PAI-I [1] was 0.049. For the same compound, the Proliferation_72hr [1] was 0.007, the SRB [1] was 0.029 and the TIMP-1 [1] was 0.066. For the same compound, the TIMP-2 [1] was 0.143, the CXCL8/IL-8 [2] was -0.030 and the CXCL9/MIG [2] was 0.069. For the same compound, the CXCL10/IP-10 [2] was 0.062, the CXCL11/I-TAC [2] was 0.000639 and the EGFR [2] was 0.025. It also gave a M-CSF [2] of 0.039, an MMP-1 [2] of 0.095 and a PAI-I [2] of 0.00174. The Proliferation_72hr [2] was 0.026, the SRB [2] was -0.013 and the TIMP-1 [2] was 0.023. For the same compound, the TIMP-2 [2] was 0.114, the CXCL8/IL-8 [3] was 0.056 and the CXCL9/MIG [3] was 0.068. The CXCL10/IP-10 [3] was 0.052, the CXCL11/I-TAC [3] was -0.029 and the EGFR [3] was 0.009. For the same compound, the M-CSF [3] was 0.012, the MMP-1 [3] was 0.109 and the PAI-I [3] was 0.059. For the same compound, the Proliferation_72hr [3] was 0.043, the SRB [3] was -0.046 and the TIMP-1 [3] was 0.021. For the same compound, the TIMP-2 [3] was 0.081, the CXCL8/IL-8 [4] was -0.00424 and the CXCL9/MIG [4] was 0.019. For the same compound, the CXCL10/IP-10 [4] was 0.029, the CXCL11/I-TAC [4] was 0.022 and the EGFR [4] was 0.016. It also gave a M-CSF [4] of 0.038, an MMP-1 [4] of 0.108 and a PAI-I [4] of 0.005. It also gave a Proliferation_72hr [4] of 0.043, an SRB [4] of -0.011 and a TIMP-1 [4] of -0.038. For the same compound, the TIMP-2 [4] was 0.090, the CXCL8/IL-8 [5] was 0.043 and the CXCL9/MIG [5] was 0.044. For the same compound, the CXCL10/IP-10 [5] was 0.051, the CXCL11/I-TAC [5] was -0.015 and the EGFR [5] was 0.031. It also gave a M-CSF [5] of -0.007, an MMP-1 [5] of 0.080 and a PAI-I [5] of 0.026. It also gave a Proliferation_72hr [5] of 0.023, an SRB [5] of -0.018 and a TIMP-1 [5] of -0.039. It also gave a TIMP-2 [5] of 0.105, a CCL2/MCP-1 (/HDFNo, 1.00E0 nM) of 0.045 and a CD54/ICAM-1 (/HDFNo, 1.00E0 nM) of 0.099. For the same compound, the CD106/VCAM-1 (/HDFNo, 1.00E0 nM) was 0.066, the “Collagen I” value (/HDFNo, 1.00E0 nM) was 0.074 and the “Collagen III” value (/HDFNo, 1.00E0 nM) was 0.041. For the same compound, the CCL2/MCP-1 (/HDFNo, 1.00E1 nM) was 0.107, the CD54/ICAM-1 (/HDFNo, 1.00E1 nM) was 0.090 and the CD106/VCAM-1 (/HDFNo, 1.00E1 nM) was 0.050. The “Collagen I” value (/HDFNo, 1.00E1 nM) was 0.084, the “Collagen III” value (/HDFNo, 1.00E1 nM) was 0.042 and the CCL2/MCP-1 (/HDFNo, 1.00E2 nM) was 0.018. The CD54/ICAM-1 (/HDFNo, 1.00E2 nM) was 0.060, the CD106/VCAM-1 (/HDFNo, 1.00E2 nM) was 0.020 and the “Collagen I” value (/HDFNo, 1.00E2 nM) was 0.100. The “Collagen III” value (/HDFNo, 1.00E2 nM) was 0.061, the CCL2/MCP-1 (/HDFNo, 1.00E3 nM) was -0.027 and the CD54/ICAM-1 (/HDFNo, 1.00E3 nM) was 0.063. For the same compound, the CD106/VCAM-1 (/HDFNo, 1.00E3 nM) was 0.049 and the “Collagen I” value (/HDFNo, 1.00E3 nM) was 0.108.
